Results on eleven molecules are retold here after ChEMBL document CHEMBL1201862, “PubChem BioAssay data set” (2004).

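The compound was tested at five concentrations on cells cultured in 96-well plates, with a 48-hour exposure period. Here, GI50 denotes the concentration required for 50% inhibition of growth.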 The source made the active and inactive calls. Rule as the data show it: active = GI50 up to about 1.1 µM and inactive = higher.

Test systems include OVCAR-4; MOLT-4; SNB-75; RXF 393; UO-31; ACHN; SN12C; Hs-578T; UACC-62; RPMI-8226; HT-29; SK-MEL-2; A549; SF-268; SK-OV-3; OVCAR-3; SR; CAKI-1; CCRF-CEM; EKVX.
Assay in all cases: DTP human tumour cell line panel, 48 h

The GI50 is the concentration that inhibits growth by half.

Turning to `COc1cc(C(=O)Oc2ccc3c(c2)OCO3)cc(OC)c1OC`, the GI50 in the test on OVCAR-4, in the test on MOLT-4, in the test with SNB-75, in the test with RXF 393, in the test on UO-31 and with ACHN was > 100 µM (inactive) throughout. The GI50 with SN12C, in the test with Hs-578T, with UACC-62, with RPMI-8226, with HT-29 and in the test on SK-MEL-2 was > 100 µM (inactive) throughout. For the same molecule, the GI50 in the test with A549, with SF-268, in the test on SK-OV-3, in the test with OVCAR-3, in the test with SR and with CAKI-1 was > 100 µM (inactive) in each case.

With `CCOC(=O)C(c1c[nH]c2ccccc12)(c1c[nH]c2ccccc12)c1c[nH]c2ccccc12`, the GI50 with MOLT-4 is 5.87 µM (inactive); with SNB-75, 20.4 µM (inactive); with RXF 393 it was 21.7 µM (inactive); with UO-31, 30.3 µM (inactive); with ACHN it was 37.1 µM (inactive); in the test on SN12C, 43 µM (inactive). In addition, the GI50 in the test with Hs-578T is 23.7 µM (inactive); in the test with UACC-62, 25.9 µM (inactive); in the test on RPMI-8226, 11.7 µM (inactive); in the test with HT-29 it was 34.4 µM (inactive); with SK-MEL-2 it was 18.8 µM (inactive); with A549, 30.7 µM (inactive). The GI50 with SF-268 was 32.8 µM (inactive); in the test with SK-OV-3 it was 30.1 µM (inactive); in the test with OVCAR-3, 27.5 µM (inactive); in the test on SR, 23.6 µM (inactive); with CCRF-CEM it was 17.2 µM (inactive); with CAKI-1, 29.4 µM (inactive). Also, in the test with EKVX, the GI50 was 37.7 µM (inactive).

With `COc1ccc(/N=N/C(=N\c2ccc(F)cc2)c2ccc(N(CCC#N)CCC#N)cc2)cc1`, the GI50 in the test on OVCAR-4 was 40.9 µM (inactive); in the test with MOLT-4 it was 31.2 µM (inactive); with SNB-75, 24 µM (inactive); in the test on RXF 393 it was 15.4 µM (inactive); with UO-31, 68.5 µM (inactive); with ACHN, 82.8 µM (inactive). Further, the GI50 in the test with SN12C is 31.8 µM (inactive); in the test with Hs-578T, 27.4 µM (inactive); with UACC-62, 15.7 µM (inactive); in the test on RPMI-8226 it was 39.2 µM (inactive); with HT-29, 39.5 µM (inactive); in the test on A549, 18.7 µM (inactive). The GI50 in the test with SF-268 is 35.2 µM (inactive); with SK-OV-3, 58.5 µM (inactive); in the test on OVCAR-3 it was 30.9 µM (inactive); in the test with SR it was 21.7 µM (inactive); with CCRF-CEM, 36.1 µM (inactive); with CAKI-1, 81.8 µM (inactive). The GI50 with EKVX was 34.4 µM (inactive).

With `COc1ccc(N2C(=O)C3c4[nH]c5cccc(C)c5c4C4CCC(C(C)(C)C)CC4C3C2=O)cc1` (stereo not drawn), the GI50 with OVCAR-4 was 0.796 µM (active); with MOLT-4, > 10 µM (inactive); with SNB-75, 5.15 µM (inactive); with RXF 393, > 10 µM (inactive); with UO-31 it was > 10 µM (inactive); with ACHN, > 10 µM (inactive). Further, the GI50 with SN12C, in the test with Hs-578T, with UACC-62, with RPMI-8226, in the test on HT-29 and in the test on SK-MEL-2 was > 10 µM (inactive) in each case. Moreover, the GI50 with A549, with SF-268, with SK-OV-3, with OVCAR-3, with SR and in the test on CAKI-1 was > 10 µM (inactive) throughout. Further, the GI50 in the test on EKVX was > 10 µM (inactive).

For the molecule `O=C(N/S(=N/S(=O)(=O)c1ccc(Br)cc1)C(Cl)(Cl)Cl)c1ccccc1` (stereo not drawn), the GI50 is > 100 µM (inactive) in the test on OVCAR-4; > 100 µM (inactive) with MOLT-4; 23.3 µM (inactive) with SNB-75; > 100 µM (inactive) in the test on RXF 393; > 100 µM (inactive) with UO-31; > 100 µM (inactive) in the test on ACHN. In addition, the GI50 in the test on SN12C, with Hs-578T, with UACC-62, in the test with RPMI-8226, in the test with HT-29 and in the test with SK-MEL-2 was > 100 µM (inactive) in each case. Further, the GI50 in the test on A549 is > 100 µM (inactive); in the test on SF-268, > 100 µM (inactive); in the test on SK-OV-3, > 100 µM (inactive); in the test with OVCAR-3, > 100 µM (inactive); with SR, 70 µM (inactive); with CCRF-CEM it was > 100 µM (inactive). In the test with EKVX, the GI50 was > 100 µM (inactive).

Regarding `O=C1CSC(c2ccccc2O)N1c1ccc(-c2ccc(-n3c(-c4ccccc4)nc4ccccc4c3=O)cc2)cc1` (stereo not drawn), the GI50 with OVCAR-4 is 31 µM (inactive); with MOLT-4, 25.4 µM (inactive); with SNB-75, 24.9 µM (inactive); with RXF 393 it was 35.1 µM (inactive); with UO-31 it was 20.7 µM (inactive); in the test with SN12C it was 74 µM (inactive). Also, the GI50 in the test with Hs-578T is 40.1 µM (inactive); in the test on UACC-62, 27.7 µM (inactive); in the test with RPMI-8226, 33.6 µM (inactive); with HT-29, 13.3 µM (inactive); with A549, 21.3 µM (inactive); with SF-268 it was 45.3 µM (inactive). Moreover, the GI50 with SK-OV-3 is 64.1 µM (inactive); with OVCAR-3, 34.8 µM (inactive); in the test with SR, 54.3 µM (inactive); with CCRF-CEM, 26.4 µM (inactive); with CAKI-1, 26.1 µM (inactive); in the test with EKVX, 37.4 µM (inactive).

For `CC1=C(/C=C/C(=O)O)C(C)(C)CCC1`, the GI50 with OVCAR-4, in the test on SNB-75, in the test on RXF 393, in the test on UO-31, in the test on ACHN and in the test on SN12C was > 100 µM (inactive) each time. Moreover, the GI50 with Hs-578T, in the test on UACC-62, in the test with RPMI-8226, with HT-29, with SK-MEL-2 and in the test on A549 was > 100 µM (inactive) each time. Moreover, the GI50 in the test on SF-268, in the test with SK-OV-3, in the test with OVCAR-3, in the test on SR, in the test with CAKI-1 and with EKVX was > 100 µM (inactive) in each case.

With `O=C1CC(c2cccc(Cl)c2)Nc2ccc(N3CCCC3)cc21` (stereo not drawn), the GI50 in the test on OVCAR-4 was 6.89 µM (inactive); in the test on MOLT-4, 0.0802 µM (active); with RXF 393, 0.0224 µM (active); in the test with UO-31 it was 0.0603 µM (active); in the test on ACHN, 0.0524 µM (active); in the test with SN12C, 0.0552 µM (active). Also, the GI50 with Hs-578T was 0.01 µM (active); in the test on UACC-62, 0.0537 µM (active); with RPMI-8226 it was 0.0802 µM (active); in the test with HT-29 it was 0.0791 µM (active); in the test with SK-MEL-2, 0.0546 µM (active); in the test on A549 it was 0.0494 µM (active). Moreover, the GI50 with SF-268 is 0.115 µM (active); in the test on SK-OV-3 it was 0.193 µM (active); in the test with OVCAR-3, 0.158 µM (active); with SR, 0.0304 µM (active); with CCRF-CEM, 0.0302 µM (active); in the test on CAKI-1 it was 0.0608 µM (active). Besides, the GI50 with EKVX is 0.0658 µM (active).

On to `COc1ccc(C(CC2(c3ccc(OC)cc3)SCCCS2)NC(C)=O)cc1` (stereo not drawn), for which the GI50 with MOLT-4 is 30.1 µM (inactive); in the test on SNB-75, 32.4 µM (inactive); with RXF 393, 67.9 µM (inactive); with UO-31, 96.4 µM (inactive); in the test with ACHN, 63 µM (inactive); in the test with SN12C it was 29.6 µM (inactive). Further, the GI50 is 86.7 µM (inactive) in the test with Hs-578T; > 100 µM (inactive) in the test with UACC-62; 38.5 µM (inactive) in the test with RPMI-8226; 65.2 µM (inactive) in the test on HT-29; 41.3 µM (inactive) in the test with SK-MEL-2; 55.8 µM (inactive) in the test with A549. For the same molecule, the GI50 was 87.3 µM (inactive) with SF-268; 40.8 µM (inactive) in the test on SK-OV-3; 45.6 µM (inactive) with OVCAR-3; 71.3 µM (inactive) in the test on SR; 21.9 µM (inactive) in the test with CCRF-CEM; 72.3 µM (inactive) in the test on CAKI-1. The GI50 in the test with EKVX is 52.8 µM (inactive).

Consider `N#Cc1c(N)oc(-c2cccc([N+](=O)[O-])c2)c1C#N`, for which the GI50 in the test on SNB-75 was 21.9 µM (inactive); in the test with RXF 393, 24.8 µM (inactive); with UO-31, 16.7 µM (inactive); in the test with ACHN it was 19.1 µM (inactive); with SN12C it was 38.6 µM (inactive); with Hs-578T, 32.8 µM (inactive). In addition, the GI50 is 30 µM (inactive) in the test on UACC-62; 22 µM (inactive) in the test on RPMI-8226; 20 µM (inactive) in the test with HT-29; 44.5 µM (inactive) in the test with SK-MEL-2; > 100 µM (inactive) with A549; 31.4 µM (inactive) with SF-268. In addition, the GI50 with SK-OV-3 was > 100 µM (inactive); with SR it was 46.6 µM (inactive); in the test with CCRF-CEM, 27 µM (inactive); in the test with CAKI-1, 20.7 µM (inactive); in the test with EKVX, 12.9 µM (inactive).

With `O=C(O)c1cc(C(=O)O)cc(N2C(=O)c3ccccc3C2=O)c1`, the GI50 in the test with OVCAR-4, in the test on SNB-75, with RXF 393, in the test with UO-31, in the test on ACHN and with SN12C was > 100 µM (inactive) in each case. The GI50 in the test on Hs-578T, with UACC-62, in the test on RPMI-8226, with HT-29, in the test on SK-MEL-2 and with A549 was > 100 µM (inactive) throughout. Also, the GI50 in the test on SF-268, in the test with SK-OV-3, with OVCAR-3, in the test with SR, with CAKI-1 and in the test on EKVX was > 100 µM (inactive) in each case.
